Values quoted from earlier work as cited in paper PMC5643362 (Acta Diabetologica, 2017).

Tests used:
[1] = tested on: neural endopeptidase
[2] = tested on: dipeptidyl peptidase IV

Exendin-4
Resistance to neural endopeptidase [1]: resistant | Resistance to dipeptidyl peptidase IV [2]: resistant
